# Assay: Optimal sampling time: pooled steady-state serum T data of LOT-AA and LOT-BB, 200 mg T BID as TU
# Type: in vivo, hypogonadal men
# Method: An investigation was conducted to identify a single optimal sampling time for monitoring the responsiveness of hypogonadal male patients subjects to chronic BID dosing of T using a SEDDS formulation of TU. Concentration data and derived pharmacokinetic parameters for 41 subjects from two studies (LOT-AA and LOT-BB) where subjects received 200 mg BID of T, as TU, for at least seven days were used in this investigation. Correlation and contingency table approaches were used in the investigation.
# Concentration data and pharmacokinetic parameters from hypogonadal male subjects that participated in study LOT-AA and study LOT-BB were combined into a single data set. From study LOT-AA, only the information from Day 7 of Treatment 3 (8 days of treatment with 200 mg BID of T, as TU) was used. Study LOT-AA contributed data from 26 subjects treated for 7 days, and study LOT-BBBB contributed data from 15 subjects treated for 28 days with 200 mg BID of T, as TU. Combining of the data from these two groups of subjects is supported by the finding from study LOT-BBBB that T steady-state is reached in 5-7 days.
# The sample collection times for these two studies both spanned a 12-hour window, but not all sample collection times were common to both studies. LOT-AA used sample collection times of 0, 1, 2, 4, 8 and 12 hours; LOT-BBBB used sample collection times of 0, 1.5, 3, 4, 5, 6, 8 and 12 hours. The current analysis used the superset of the combined set of collection times (0, 1, 1.5, 2, 3, 4, 5, 6, 8 and 12 hours). Concentration values that were missing for a subject in either of the data sets at a particular sample collection time were estimated by linear interpolation, using the existing nearest neighbor concentration values for that subject, i.e., interpolation of missing data was subject-specific.
# [1] = targeted Cavg 300-1000, 41 subjects
structure (smiles),measurement,setting,value
"CCCCCCCCCCC(=O)O[C@H]1CC[C@H]2[C@@H]3CCC4=CC(=O)CC[C@]4(C)[C@H]3CC[C@]12C [TU, testosterone undecanoate]","C(2), Mean","serum T, N 41",466 ng/dL
same,"C(2), Median","serum T, N 41",397 ng/dL
same,"C(2), Min","serum T, N 41",116 ng/dL
same,"C(3), Max","serum T, N 41",1440 ng/dL
same,"C(3), Mean","serum T, N 41",600 ng/dL
same,"C(3), Median","serum T, N 41",546 ng/dL
same,"C(3), Min","serum T, N 41",160 ng/dL
same,"C(4), Max","serum T, N 41",1770 ng/dL
same,"C(4), Mean","serum T, N 41",745 ng/dL
same,"C(4), Median","serum T, N 41",720 ng/dL
same,"C(4), Min","serum T, N 41",127 ng/dL
same,"C(5), Max","serum T, N 41",1690 ng/dL
same,"C(5), Mean","serum T, N 41",708 ng/dL
same,"C(5), Median","serum T, N 41",686 ng/dL
same,"C(5), Min","serum T, N 41",125 ng/dL
same,"C(6), Max","serum T, N 41",1660 ng/dL
same,"C(6), Mean","serum T, N 41",673 ng/dL
same,"C(6), Median","serum T, N 41",606 ng/dL
same,"C(6), Min","serum T, N 41",216 ng/dL
same,"C(8), Max","serum T, N 41",1910 ng/dL
same,"C(8), Mean","serum T, N 41",537 ng/dL
same,"C(8), Median","serum T, N 41",367 ng/dL
same,"C(8), Min","serum T, N 41",225 ng/dL
same,"C(12), Max","serum T, N 41",757 ng/dL
same,"C(12), Mean","serum T, N 41",278 ng/dL
same,"C(12), Median","serum T, N 41",222 ng/dL
same,"C(12), Min","serum T, N 41",84.2 ng/dL
same,"Cavg, Max","serum T, N 41",1057 ng/dL
same,"Cavg, Mean","serum T, N 41",517 ng/dL
same,"Cavg, Median","serum T, N 41",454 ng/dL
same,"Cavg, Min","serum T, N 41",192 ng/dL
same,"Cmax, Max","serum T, N 41",1910 ng/dL
same,"Cmax, Mean","serum T, N 41",970 ng/dL
same,"Cmax, Median","serum T, N 41",951 ng/dL
same,"Cmax, Min","serum T, N 41",249 ng/dL
same,"Number of subjects, Cavg in range",[1],33
same,"Number of subjects, Cavg too high",[1],3
same,"Number of subjects, Cavg too low",[1],5

# Source: patent US20210220374A1, “METHODS OF TREATING TE[…]” (Clarus Therapeutics, Inc., priority 2013, published 2021)
